The record followed here is US12616671B2, “Use of rigosertib to treat RNA virus infections” (Icahn School of Medicine at Mount Sinai, priority 2020, dated 2026).

pIC50: −log10 of the molar value.

In one series the test system is SARS-CoV-2. Description: Inhibition of SARS-CoV-2 replication in Vero E6 cells (viral NP immunostaining, percent infection). Particulars: for pIC50: read-out: IC50 of inhibition of the replication of SARS-CoV-2, MOI 0.025, compound added 2 h before infection, 48 h incubation, NP immunostaining.
For the next series, the system named is Vero E6 cells. The following applies: uninfected VeroE6 cells, MTT assay, same compound dilutions as viral replication assay. (Tetrazolium assays rely on reduction of a dye to a coloured formazan, in cell work by metabolically active cells.)

As to `CCN(CCO)CCCC(C)Nc1ccnc2cc(Cl)ccc12` (stereo not drawn) [Hydroxy-Chloroquine], in the series on SARS-CoV-2, the pIC50 was 6.13.

`CN1CCN(c2ccc(Nc3ncc4cc(C#N)c(=O)n(C5CCCC5)c4n3)cc2)CC1` [ON123300]: the “effect on viral replication” value in the series with SARS-CoV-2 (SARS-CoV-2, negative control, data not shown) was “no effect”.

Consider `CCC(CC)COC(=O)[C@H](C)N[P@](=O)(OC[C@H]1O[C@@](C#N)(c2ccc3c(N)ncnn23)[C@H](O)[C@@H]1O)Oc1ccccc1` [Remdesivir], for which, in the series with SARS-CoV-2, the negative logarithm of the IC50 (pIC50) was 6.08.

Take `COc1cc(OC)c(/C=C/S(=O)(=O)Cc2ccc(OC)c(NCC(=O)O)c2)c(OC)c1` [Rigosertib]: the “effect on the viability of Vero E6 cells” value in the series on Vero E6 cells was “little or no effect”. Also, in the series with SARS-CoV-2 (ratio of IC50 values versus Remdesivir), the “fold more effective than Remdesivir (SARS-CoV-2 replication IC50)” value was “approximately 50 fold”. In addition, the negative logarithm of the IC50 (pIC50) with SARS-CoV-2 is 7.80.

By pIC50 is commonly meant −log10 of the IC50, conventionally taken in molar units.
